Format in all cases: cell-based
One test deals with SW1463. The test is described as follows: Cell proliferation, CCK-8. As to conditions: Homo sapiens; SW1463, CCK8, 48 h. The protocol:
(§1) Cell proliferation was evaluated using a Cell Counting Kit-8 (CCK-8) (Dojindo) following the manufacturer's instructions. Briefly, CRC cells were plated in 96-well plates at a density of 5 × 10^3 cells per well. […] Cells treated with DMSO were used as the […] controls, and the final DMSO concentration in the medium was 0.1%. After 48 h of treatment, 10 μL of CCK-8 solution was added to every well and incubated for 1 h at 37 °C. Then, a microplate reader (Synergy H4 Hybrid Reader, BioTek) was used to measure the absorbance of the solvent at 450 nm. The background of drug and culture medium has been deducted in each well. The relative cell proliferation of each treatment group was expressed as the percentage change relative to the […] control group. Each data point is the mean ± s.d. of two or three independent experiments.

The next test has as its system RKO. The test is described as follows: Cell proliferation, CCK-8. The conditions noted are these: Homo sapiens, CCK8, 48 h. The protocol: as §1
Another test deals with Colo205. The test is described as follows: Cell proliferation, CCK-8. The conditions noted are these: Homo sapiens, COLO 205; Colo205, CCK8, 48 h. The protocol:
as §1

The test system of a further test is Colo320DM. As to the kind of experiment: Cell proliferation, CCK-8. The conditions noted are these: Homo sapiens, COLO 320DM, CCK8, 48 h. The protocol:
as §1

The subject of another test is SW480. The test is described as follows: Cell proliferation, CCK-8. The conditions noted are these: Homo sapiens; SW480, CCK8, 48 h. The protocol: as §1
In the next test the test system is NCI-H716. As to the kind of experiment: Cell proliferation, CCK-8. The conditions noted are these: Homo sapiens; NCI-H716, CCK8, 48 h. The protocol:
as §1

Another test concerns Colo201. As to the kind of experiment: Cell proliferation, CCK-8. As to conditions: Homo sapiens, COLO 201; Colo201, CCK8, 48 h. As to the method: as §1
The next test relates to SW48. The test is described as follows: Cell proliferation, CCK-8. The conditions noted are these: Homo sapiens; SW48, CCK8, 48 h. As to the method:
as §1

Another test deals with HCT15. As to the kind of experiment: Cell proliferation, CCK-8. As to conditions: Homo sapiens, HCT-15; HCT15, CCK8, 48 h. The protocol: as §1
A further test concerns LS180. As to the kind of experiment: Cell proliferation, CCK-8. As to conditions: Homo sapiens; LS180, CCK8, 48 h. As to the method: as §1
Another test relates to LS513. The test is described as follows: Cell proliferation, CCK-8. As to conditions: Homo sapiens, LS-513; LS513, CCK8, 48 h. The protocol:
as §1

Another test relates to LS174T. The test is described as follows: Cell proliferation, CCK-8. The conditions noted are these: Homo sapiens, CCK8, 48 h. As to the method:
as §1

Another test has as its system DLD-1. As to the kind of experiment: Cell proliferation, CCK-8. As to conditions: Homo sapiens; DLD-1, CCK8, 48 h. As to the method:
as §1

The subject of another test is Caco2. The test is described as follows: Cell proliferation, CCK-8. The conditions noted are these: Homo sapiens, Caco-2; Caco2, CCK8, 48 h. As to the method: as §1
The subject of another test is SW620. The test is described as follows: Cell proliferation, CCK-8. The conditions noted are these: Homo sapiens, SW-620; SW620, CCK8, 48 h. As to the method: as §1
A further test deals with LS123. As to the kind of experiment: Cell proliferation, CCK-8. As to conditions: Homo sapiens, LS-123; LS123, CCK8, 48 h. As to the method: as §1
A further test deals with SKCO1. The test is described as follows: Cell proliferation, CCK-8. As to conditions: Homo sapiens, SK-CO-1; SKCO1, CCK8, 48 h. As to the method:
as §1

Another test relates to LOVO. As to the kind of experiment: Cell proliferation, CCK-8. The conditions noted are these: Homo sapiens, CCK8, 48 h. The protocol: as §1
Another test relates to SW1417. As to the kind of experiment: Cell proliferation, CCK-8. The conditions noted are these: Homo sapiens; SW1417, CCK8, 48 h. The protocol: as §1
Another test concerns FHC. As to the kind of experiment: Cell proliferation, CCK-8, non-cancerous colon cell line. As to conditions: Homo sapiens, CCK-8, 48 h, Figure S6, mean ± s.e.m. of three experiments.

Each structure is given as a SMILES string.

For `Cc1cc(F)c(Br)cc1NS(=O)(=O)c1ccc(NS(=O)(=O)c2cc(Cl)cc(Cl)c2)cc1CN1CCOC[C@H]1C` [MDL-811], the IC50 – broadly, the concentration needed to halve the response being measured – worked out at 13 ± 1.5 µM with SW1463; 12.3 ± 1.8 µM in the test on RKO; 38.1 ± 4.4 µM in the test with Colo205; 33.2 ± 0.9 µM in the test with Colo320DM; 9.3 ± 1.7 µM with SW480; 61 ± 2.3 µM with NCI-H716. The IC50 was found to be 20.3 ± 1.4 µM with Colo201; 10.8 ± 1.5 µM in the test with SW48; 20.5 ± 1.3 µM in the test with HCT15; 19.1 ± 0.4 µM with LS180; 28.6 ± 0.6 µM in the test with LS513; 23.8 ± 2 µM with LS174T. The IC50 is 18 ± 0.1 µM with DLD-1; 28.7 ± 1.7 µM in the test on Caco2; 16.7 ± 1.4 µM with SW620; 19.8 ± 0.5 µM in the test with LS123; 12.1 ± 0.1 µM in the test with SKCO1; 7.8 ± 0.2 µM in the test on LOVO. Moreover, the IC50 in the test with SW1417 was determined as 15.1 ± 1.9 µM; with FHC, 24.4 ± 0.5 µM.

(Values after PMC7255010, “Small-molecule activating SIRT6 elicits therapeutic effects and synergistically promotes anti-tumor activity of vitamin D3 in colorectal cancer” (Theranostics, 2020).)
